The target of one assay is T1, GRK5 (Homo sapiens, UniProt P34947).
T1 construct: purchased Thermo Scientific
The experiment in a line: Lance Kinase Activity Assay, GRK5. The settings on record: biochemical Lance kinase activity assay; class symbols A-F; read-out: GRK5 LANCE Assay (IC-50). The method, then:
(§1) This protocol describes how the Lance Kinase Activity Assay was performed to determine IC50 values of compounds of general formula (I) against GRK5 and GRK2.
(§2) The principle behind this enzymatic assay is based upon the phosphorylation of the Ulight-peptide substrate. It is detected by using a specific EU-labeled anti-phospho peptide antibody. The binding of the Eu labeled anti-phospho peptide antibody to the phosphorylated ULight labeled peptide gives rise to a FRET-signal. Binding of an inhibitor to the kinase prevents phosphorylation of the Ulight-substrate, resulting in a loss of FRET. In tables 2 and 3 the relevant information for these two LANCE assays is summarized.
(§3) For every sample, 2 μl of assay buffer (50 mM HEPES pH 7,5, 10 mM MgCL2, 1 mM EGTA 0,01% Tween 20, 1% DMSO, 2 mM DTT) were transferred into a suitable assay plate (e.g. Corning #3673). Compounds were added in a concentration range from 10 μM to 0.0025 μM using an acoustic dispenser (Echo520 from Labcycte, San Jose, USA) equipped with Echo Dose Response software. After that 6 μl of kinase-substrate mix was added. Reaction was started by addition of 2 μl ATP working solution and mixed using a Bioshake 5000 microplate shaker (Q Instruments, Jena, Germany).
(§4) After 1 h incubation at room temperature the reaction was stopped with 10 μl detection mix containing the Eu-labeled phosphospecific antibody and 10 mM EDTA. After a second incubation period of 1 h at room temperature the FRET signal was measured at 340 nm excitation, 665 nm and 615 nm emission (for the ULight-substrate and Eu-AB, respectively) with an Envision microplate reader (Perkin Elmer, Waltham, MA, USA) with 50 μs delay and 300 μs integration time. IC50 values were determined from the sigmoidal dose response curves with the software Quattro Workflow (Quattro GmbH, Munich, Germany).
(§5) Inhibition is indicated as IC50 [nM] (“−”=not measured). Compounds having an activity designated as “A” provided an IC50≤50 nM; compounds having an activity designated as “B” provided an 50 nM<IC50≤100 nM; compounds having an activity designated as “C” provided an 100 nM<IC50≤500 nM; compounds having an activity designated as “D” provided an 500 nM<IC50≤1000 nM; compounds having an activity designated as “E” provided an 1000 nM<IC50≤10000 nM; and compounds having an activity designated as “F” provided an IC50>10000 nM.
Background: Time-resolved FRET reads energy transfer from a long-lived donor to a nearby acceptor.

Another assay deals with T2, GRK2 (Homo sapiens, UniProt P25098).
T2 construct: purchased Thermo Scientific
T2 sequence (P25098 1-689): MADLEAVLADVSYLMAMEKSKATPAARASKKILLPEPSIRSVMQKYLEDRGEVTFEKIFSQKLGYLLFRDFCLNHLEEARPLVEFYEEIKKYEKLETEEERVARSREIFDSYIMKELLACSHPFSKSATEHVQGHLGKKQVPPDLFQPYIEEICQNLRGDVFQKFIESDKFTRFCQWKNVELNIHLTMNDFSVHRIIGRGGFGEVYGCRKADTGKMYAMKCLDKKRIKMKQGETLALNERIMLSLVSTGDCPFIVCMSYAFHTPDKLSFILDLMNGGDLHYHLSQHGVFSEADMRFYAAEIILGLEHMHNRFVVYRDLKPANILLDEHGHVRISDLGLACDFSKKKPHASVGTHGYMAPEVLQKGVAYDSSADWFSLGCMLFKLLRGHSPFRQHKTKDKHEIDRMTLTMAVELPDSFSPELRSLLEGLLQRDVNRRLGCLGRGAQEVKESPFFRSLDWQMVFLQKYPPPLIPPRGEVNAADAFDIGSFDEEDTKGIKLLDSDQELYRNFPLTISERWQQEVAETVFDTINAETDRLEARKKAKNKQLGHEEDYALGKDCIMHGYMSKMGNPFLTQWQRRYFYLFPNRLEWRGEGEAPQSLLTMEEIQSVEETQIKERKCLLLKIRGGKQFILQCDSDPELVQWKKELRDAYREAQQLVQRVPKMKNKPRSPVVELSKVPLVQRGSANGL
As to the kind of experiment: Lance Kinase Activity Assay, GRK2. The settings on record: biochemical Lance kinase activity assay; class symbols A-F; read-out: GRK2 LANCE Assay (IC-50). As for the experimental part: as §1, §2, §3, §4, §5

T1 sequence (P34947 whole entry): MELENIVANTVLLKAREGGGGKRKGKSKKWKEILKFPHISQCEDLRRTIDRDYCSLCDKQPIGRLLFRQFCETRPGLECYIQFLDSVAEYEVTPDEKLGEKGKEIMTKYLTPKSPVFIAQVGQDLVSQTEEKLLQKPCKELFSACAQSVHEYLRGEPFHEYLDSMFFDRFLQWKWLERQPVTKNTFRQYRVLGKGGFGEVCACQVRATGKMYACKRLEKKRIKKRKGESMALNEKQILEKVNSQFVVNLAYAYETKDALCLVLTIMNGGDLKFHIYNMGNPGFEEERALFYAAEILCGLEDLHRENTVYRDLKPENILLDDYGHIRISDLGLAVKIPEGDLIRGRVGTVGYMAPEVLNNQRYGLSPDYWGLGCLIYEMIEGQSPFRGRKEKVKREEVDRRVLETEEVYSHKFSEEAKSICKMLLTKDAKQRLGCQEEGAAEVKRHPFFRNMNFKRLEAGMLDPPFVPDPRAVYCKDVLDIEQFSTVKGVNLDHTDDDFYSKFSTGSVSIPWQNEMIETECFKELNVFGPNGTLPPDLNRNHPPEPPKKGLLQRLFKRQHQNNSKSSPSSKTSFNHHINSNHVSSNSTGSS

As to `COc1ccc([C@@H](C)NC(=O)C(C#N)=Cc2c[nH]c3ncc(-c4ccc(CCN(C)C)cc4)cc23)cc1OC` (stereo in doubt) [Example 135], the IC50 is not above 50 nM at GRK5 and 1000 to 10000 nM on GRK2.

As for `C[C@@H](NC(=O)/C(C#N)=C/c1c[nH]c2ncccc12)c1cccc(F)c1` [Example 1, (R,E)-2-cyano-N-(1-(3-fluorophenyl)ethyl)-3-(1H-pyrrolo[2,3-b]pyridin-3-yl)acrylamide], the IC50 at GRK5 and at GRK2 was 100 to 500 nM in each case.

With `O=C(/C=C/c1c[nH]c2ncc(Cl)cc12)NCc1ccccc1` [Example 6, (E)-N-benzyl-3-(5-chloro-1H-pyrrolo[2,3-b]pyridin-3-yl)acrylamide], the results for the IC50 at GRK5 and at GRK2 were 100 to 500 nM and 1000 to 10000 nM, respectively.

In the case of `O=C(/C=C/c1c[nH]c2ncc(Cl)cc12)NCc1cccc(F)c1` [Example 7, (E)-3-(5-chloro-1H-pyrrolo[2,3-b]pyridin-3-yl)-N-(3-fluorobenzyl)acrylamide], the values for the IC50 on GRK5 and on GRK2 were 100 to 500 nM and 1000 to 10000 nM, respectively.

As to `O=C(/C=C/c1c[nH]c2nccc(Cl)c12)NCc1cccc(F)c1` [Example 8, (E)-3-(4-chloro-1H-pyrrolo[2,3-b]pyridin-3-yl)-N-(3-fluorobenzyl)acrylamide], the IC50 at GRK5 lay within 1000 to 10000 nM; at GRK2, 500 to 1000 nM.

For `CC(NC(=O)/C=C/c1c[nH]c2ncccc12)c1ccc(F)cc1` (stereo not drawn) [Example 10, (E)-N-(1-(4-fluorophenyl)ethyl)-3-(1H-pyrrolo[2,3-b]pyridin-3-yl)acrylamide], the IC50 on GRK5 and on GRK2 was 1000 to 10000 nM in each case.

Turning to `COc1ccc([C@@H](C)NC(=O)/C=C/c2c[nH]c3ncc(Br)cc23)cc1OC` [Example 11, (R,E)-3-(5-bromo-1H-pyrrolo[2,3-b]pyridin-3-yl)-N-(1-(3,4-dimethoxyphenyl)ethyl)acrylamide], the IC50 was not above 50 nM on GRK5 and 1000 to 10000 nM on GRK2.

As to `C[C@@H](NC(=O)/C(C#N)=C/c1c[nH]c2ncccc12)c1ccccc1Cl` [Example 12, (R,E)-N-(1-(2-chlorophenyl)ethyl)-2-cyano-3-(1H-pyrrolo[2,3-b]pyridin-3-yl)acrylamide], the IC50 is 100 to 500 nM on GRK5 and 500 to 1000 nM at GRK2.

`C[C@@H](NC(=O)/C(C#N)=C/c1c[nH]c2ncccc12)c1cccc(Cl)c1` [Example 13, (R,E)-N-(1-(3-chlorophenyl)ethyl)-2-cyano-3-(1H-pyrrolo[2,3-b]pyridin-3-yl)acrylamide]: the IC50 on GRK5 was 50 to 100 nM; on GRK2, 100 to 500 nM.

For `N#C/C(=C\c1c[nH]c2ncccc12)C(=O)N[C@@H](c1ccccc1)C(F)(F)F` [Example 14, (S,E)-2-cyano-3-(1H-pyrrolo[2,3-b]pyridin-3-yl)-N-(2,2,2-trifluoro-1-phenylethyl)acrylamide], the IC50 at GRK5 lay in the range of 500 to 1000 nM; at GRK2, 1000 to 10000 nM.

As for `COc1ccc([C@@H](C)NC(=O)/C(C#N)=C/c2c[nH]c3ncccc23)cc1OC` [Example 15, (R,E)-2-cyano-N-(1-(3,4-dimethoxyphenyl)ethyl)-3-(1H-pyrrolo[2,3-b]pyridin-3-yl)acrylamide], the IC50 at GRK5 lay in the range of 50 to 100 nM; at GRK2, 1000 to 10000 nM.

On to `C[C@@H](NC(=O)/C(C#N)=C/c1c[nH]c2ncccc12)c1ccc(F)c(F)c1` [Example 16, (R,E)-2-cyano-N-(1-(3,4-difluorophenyl)ethyl)-3-(1H-pyrrolo[2,3-b]pyridin-3-yl)acrylamide], for which the IC50 at GRK5 and at GRK2 was 50 to 100 nM each time.

Consider `C[C@@H](NC(=O)/C(C#N)=C/c1c[nH]c2ncccc12)c1ccc(F)cc1F` [Example 17, (R,E)-2-cyano-N-(1-(2,4-difluorophenyl)ethyl)-3-(1H-pyrrolo[2,3-b]pyridin-3-yl)acrylamide], for which the IC50 at GRK5 and on GRK2 was 100 to 500 nM each time.

As for `C[C@@H](NC(=O)/C(C#N)=C/c1c[nH]c2ncccc12)c1cccc(C(F)(F)F)c1` [Example 18, (R,E)-2-cyano-3-(1H-pyrrolo[2,3-b]pyridin-3-yl)-N-(1-(3-(trifluoromethyl)phenyl)ethyl)acrylamide], the IC50 at GRK5 was 100 to 500 nM; on GRK2 it was 500 to 1000 nM.

For `COc1ccc([C@@H](C)NC(=O)/C(C#N)=C/c2c[nH]c3ncccc23)cc1` [Example 19, (R,E)-2-cyano-N-(1-(4-methoxyphenyl)ethyl)-3-(1H-pyrrolo[2,3-b]pyridin-3-yl)acrylamide], the IC50 was in the range of 100 to 500 nM on GRK5 and 1000 to 10000 nM on GRK2.

Regarding `C[C@@H](NC(=O)/C(C#N)=C/c1c[nH]c2ncccc12)c1ccc(Cl)c(Cl)c1` [Example 20, (R,E)-2-cyano-N-(1-(3,4-dichlorophenyl)ethyl)-3-(1H-pyrrolo[2,3-b]pyridin-3-yl)acrylamide], the IC50 at GRK5 and on GRK2 was 100 to 500 nM in each case.

With `N#C/C(=C\c1c[nH]c2ncccc12)C(=O)NCc1ccc(S(N)(=O)=O)cc1` [Example 21, (E)-2-cyano-3-(1H-pyrrolo[2,3-b]pyridin-3-yl)-N-(4-sulfamoylbenzyl)acrylamide], the IC50 on GRK5 is 1000 to 10000 nM; on GRK2, more than 10000 nM.

Turning to `Cc1ccc(Br)cc1CNC(=O)/C(C#N)=C/c1c[nH]c2ncccc12` [Example 23, (E)-N-(5-bromo-2-methylbenzyl)-2-cyano-3-(1H-pyrrolo[2,3-b]pyridin-3-yl)acrylamide], the IC50 was 1000 to 10000 nM at GRK5 and more than 10000 nM at GRK2.

Turning to `CN(C)c1ccc(CNC(=O)/C(C#N)=C/c2c[nH]c3ncccc23)cc1` [Example 24, (E)-2-cyano-N-(4-(dimethylamino)benzyl)-3-(1H-pyrrolo[2,3-b]pyridin-3-yl)acrylamide], the figures for the IC50 at GRK5 and on GRK2 were 1000 to 10000 nM and more than 10000 nM, respectively.

With `CN(C)c1ccccc1CNC(=O)/C(C#N)=C/c1c[nH]c2ncccc12` [Example 25, (E)-2-cyano-N-(2-(dimethylamino)benzyl)-3-(1H-pyrrolo[2,3-b]pyridin-3-yl)acrylamide], the IC50 is 1000 to 10000 nM on GRK5 and more than 10000 nM at GRK2.

With `N#C/C(=C\c1c[nH]c2ncccc12)C(=O)NCc1ccc(C#N)cc1` [Example 26, (E)-2-cyano-N-(4-cyanobenzyl)-3-(1H-pyrrolo[2,3-b]pyridin-3-yl)acrylamide], the IC50 on GRK5 and at GRK2 was 1000 to 10000 nM throughout.

Turning to `N#C/C(=C\c1c[nH]c2ncccc12)C(=O)NCc1cccc(CS(N)(=O)=O)c1` [Example 27, (E)-2-cyano-3-(1H-pyrrolo[2,3-b]pyridin-3-yl)-N-(3-(sulfamoylmethyl)benzyl)-acrylamide], the IC50 on GRK5 and at GRK2 was 1000 to 10000 nM in each case.

As for `N#C/C(=C\c1c[nH]c2ncccc12)C(=O)NCc1cccc(C(N)=O)c1` [Example 28, (E)-3-((2-cyano-3-(1H-pyrrolo[2,3-b]pyridin-3-yl)acrylamido)methyl)benzamide], the IC50 on GRK5 fell in the range of 500 to 1000 nM; on GRK2, 100 to 500 nM.

With `CS(=O)(=O)Nc1cccc(CNC(=O)/C(C#N)=C/c2c[nH]c3ncccc23)c1` [Example 29, (E)-2-cyano-N-(3-(methylsulfonamido)benzyl)-3-(1H-pyrrolo[2,3-b]pyridin-3-yl)acrylamide], the IC50 at GRK5 was 500 to 1000 nM; on GRK2 it was 100 to 500 nM.
